Converted amounts (≈) assume the structure as drawn. Like-named read-outs stand apart in the source and are kept apart here.

One data set deals with Aspergillus fumigatus. The data set is described as follows: Broth microdilution antifungal MIC (NCCLS). The class given is cell-based. To be noted: Aspergillus fumigatus S-430; RPMI-1640, 35° C., 72 hours. As for the experimental part:
(§1) The antifungal activity of Hygroscopene A is determined by a broth microdilution method as recommended by the National Committee for Clinical Laboratory Standard (NCCLS) (1, 2). Sterile, disposable, multiwell plates (96 U-shaped wells) containing serial dilutions of Hygroscopene A and a control drug (Amphotericin B) are prepared in a 100 μl volume with RPMI-1640 broth supplemented with 0.2% sodium bicarbonate and […] [3-(N-morpholino) propanesulfonic acid] buffer. RPMI-1640 is a completely synthetic medium that supports the growth of most fungi. Antimicrobial agent concentrations ranged from 0.06-64 μg/ml. Five colonies from 24-hour old yeast culture or 48-hour old filamentous fungi culture were suspended in 0.85% saline. The suspensions are diluted in RPMI-1640 broth and inoculated in to plates (100 μl/well) containing antimicrobial agents. The final inocula of yeast or fungi are 0.5-2.5×10^3 CFU/ml and 0.4×10^4-5×10^4 CFU/ml respectively. Plates are incubated at 35° C. for 24-72 hours in ambient air. Hygroscopene A is tested against a panel of pathogenic yeast and filamentous fungi, which consisted of Candida sp. and Aspergillus sp. The yeast and fungal strains tested are clinical isolates or were purchased from American Type Culture Collection (ATCC) (Rockville, Md.). […] The MIC values for yeast are determined after 24-48 hours of incubation. For filamentous fungi, the MIC is determined after 72 hours of incubation.
A general note: Broth dilution looks for growth in wells or tubes with falling amounts of substance.

The next data set has as its system Aspergillus niger. The data set is described as follows: Broth microdilution antifungal MIC (NCCLS). Format: cell-based. To be noted: Aspergillus niger ATCC 26933, RPMI-1640, 35° C., 72 hours. The method, then: as §1
The subject of another data set is Candida albicans. The data set is described as follows: Broth microdilution antifungal MIC (NCCLS). Format: cell-based. To be noted: RPMI-1640, 35° C., 24-48 hours. The method, then: as §1
Another data set deals with Candida krussii. Briefly: Broth microdilution antifungal MIC (NCCLS). The class given is cell-based. To be noted: Candida krussii 94-2, RPMI-1640, 35° C., 24-48 hours. As for the experimental part: as §1
Another data set relates to Candida lustitaniae. The data set is described as follows: Broth microdilution antifungal MIC (NCCLS). The class given is cell-based. To be noted: Candida lustitaniae 94-3, RPMI-1640, 35° C., 24-48 hours. The method, then:
as §1

The test system of a further data set is Candida parapsilosis. The data set is described as follows: Broth microdilution antifungal MIC (NCCLS). The class given is cell-based. To be noted: RPMI-1640, 35° C., 24-48 hours. The method, then:
as §1

A further data set has as its system Candida pseudotropicalis. The data set is described as follows: Broth microdilution antifungal MIC (NCCLS). Particulars: Candida pseudotropicalis ATCC 28838, RPMI-1640, 35° C., 24-48 hours. Format: cell-based. As for the experimental part:
as §1

A further data set concerns Candida rugosa. The data set is described as follows: Broth microdilution antifungal MIC (NCCLS). The class given is cell-based. Particulars: Candida rugosa 94-10, RPMI-1640, 35° C., 24-48 hours. The method, then:
as §1

In another data set the test system is Candida tropicalis. Briefly: Broth microdilution antifungal MIC (NCCLS). The class given is cell-based. Particulars: RPMI-1640, 35° C., 24-48 hours. As for the experimental part: as §1
The nature of data set [1]: Solubility (physico-chemical properties). The class given is physicochemical. To be noted: solvents MeOH, EtOH, DMSO.

As usually defined, the MIC is the lowest concentration that inhibits growth of the organism. Take `C\C(=C/C=C/C=C/CC/C=C/C(C)C(O)C(C)C(O)/C=C/C=C/C=C/C=C/C=C/C=C/CC(OS(=O)(=O)O)C(C)C(=O)CC(O)CC(O)/C=C/CC(O)CC(O)/C=C/CC(O)CC(O)CC(O)/C=C/CC(O)CC(O)CCCNC(=N)N)C(=O)O` (stereo not drawn) [Hygroscopene A]: the MIC in the data set with Aspergillus fumigatus turned out to be 2 µg/mL (≈ 1.64 µM); with Aspergillus niger (ATCC26933, read-out: MIC), 8 µg/mL (≈ 6.57 µM); in the data set on Candida albicans (Candida albicans, ATCC90028, Candida albicans ATCC 90028, read-out: MIC), 2 µg/mL (≈ 1.64 µM); with Candida albicans (Candida albicans, Candida albicans 1063, read-out: MIC), 2 µg/mL (≈ 1.64 µM); with Candida albicans (Candida albicans, Candida albicans 1117, read-out: MIC) it was 1 µg/mL (≈ 0.821 µM); in the data set with Candida krussii (read-out: MIC), 1 µg/mL (≈ 0.821 µM). Also, the minimum inhibitory concentration (MIC) with Candida lustitaniae (read-out: MIC) stood at 1 µg/mL (≈ 0.821 µM); against Candida parapsilosis (Candida parapsilosis 94-9), 2.0 µg/mL (≈ 1.64 µM); with Candida parapsilosis (Lodderomyces parapsilosis, ATCC90018, Candida parapsilosis ATCC 90018, read-out: MIC), 2 µg/mL (≈ 1.64 µM); in the data set on Candida parapsilosis (Lodderomyces parapsilosis, Candida parapsilosis 94-8, read-out: MIC), 2 µg/mL (≈ 1.64 µM); in the data set on Candida pseudotropicalis (Kluyveromyces marxianus, ATCC28838, read-out: MIC) it was 2 µg/mL (≈ 1.64 µM); in the data set with Candida rugosa (Diutina rugosa, read-out: MIC), 1 µg/mL (≈ 0.821 µM). For the same compound, the MIC in the data set with Candida tropicalis (Candida tropicalis 94-13, read-out: MIC) is 1 µg/mL (≈ 0.821 µM); with Candida tropicalis (Candida tropicalis 94-14), 1.0 µg/mL (≈ 0.821 µM). The Solubility entry in data set [1] was “Soluble in MeOH, EtOH, DMSO”.
As for `C[C@@H]1[C@H](O)[C@@H](C)/C=C/C=C/C=C/C=C/C=C/C=C/C=C/[C@H](O[C@@H]2O[C@H](C)[C@@H](O)[C@H](N)[C@@H]2O)C[C@@H]2O[C@](O)(C[C@@H](O)C[C@@H](O)[C@H](O)CC[C@@H](O)C[C@@H](O)CC(=O)O[C@H]1C)C[C@H](O)[C@H]2C(=O)O` [Amphotericin B, reference compound], the minimum inhibitory concentration (MIC) is 0.50 µg/mL (≈ 0.541 µM) with Aspergillus niger; 0.125 µg/mL (≈ 0.135 µM) against Candida albicans (Candida albicans 1063); 0.125 µg/mL (≈ 0.135 µM) in the data set on Candida albicans (Candida albicans 1117); 0.25 µg/mL (≈ 0.271 µM) against Candida albicans (Candida albicans ATCC 90028); 0.50 µg/mL (≈ 0.541 µM) in the data set with Candida krussii; 0.125 µg/mL (≈ 0.135 µM) in the data set on Candida lustitaniae. Besides, the MIC came out at 0.25 µg/mL (≈ 0.271 µM) in the data set with Candida parapsilosis (Candida parapsilosis 94-8); 0.25 µg/mL (≈ 0.271 µM) with Candida parapsilosis (Candida parapsilosis 94-9); 0.25 µg/mL (≈ 0.271 µM) against Candida parapsilosis (Candida parapsilosis ATCC 90018); 0.25 µg/mL (≈ 0.271 µM) against Candida pseudotropicalis; 0.50 µg/mL (≈ 0.541 µM) against Candida rugosa; 0.25 µg/mL (≈ 0.271 µM) in the data set with Candida tropicalis (Candida tropicalis 94-13). Besides, the minimum inhibitory concentration (MIC) against Candida tropicalis (Candida tropicalis 94-14) amounted to 0.25 µg/mL (≈ 0.271 µM).
In the case of `C\C(=C/C=C/C=C/CC/C=C/C(C)C(O)C(C)C(O)/C=C/C=C/C=C/C=C/C=C/C=C/CC(OS(=O)(=O)O)C(C)C(=O)CC(O)CC(O)/C=C/CC(O)CC(O)/C=C/CC(O)CC(O)CC(O)/C=C/CC(O)CC(O)CCCN)C(=O)O` (stereo not drawn) [Hygroscopene B], the Solubility entry in data set [1] was “Soluble in MeOH, EtOH, DMSO”.
On the same count and under the same terms, with `C\C(=C/C=C/C=C/CC/C=C/C(C)C(O)C(C)C(O)/C=C/C=C/C=C/C=C/C=C/C=C/CC(O)C(C)C(=O)CC(O)CC(O)/C=C/CC(O)CC(O)/C=C/CC(O)CC(O)CC(O)/C=C/CC(O)CC(O)CCCN)C(=O)O` (stereo not drawn) [Hygroscopene C] the entry was “Soluble in MeOH, EtOH, DMSO”.

The values above are taken from patent US20040138302A1, “Antifungal antibiotics” (Wyeth Holdings Corporation, priority 2002, published 2004).
